In patent publication US9168311B2, “Oligomer-dantrolene conjugates and related compounds” (Nektar Therapeutics, priority 2007, dated 2015):
Structures can show the parent of a compound that is named as a salt.

Assays:
[1] = pKa and LogP determination with a Sirius GLPKa instrument; type: physicochemical
[2] = target: T1, cardiac L-type calcium channel (Homo sapiens, UniProt Q13936); assay: Calcium current (ICa) block, whole-cell patch clamp in isolated human atrial myocytes; type: cell-based; conditions: for IC50: read-out: IC50 at 0.1 Hz; for Fold Difference (Parent vs. Derivative): ratio of IC50 at 0.1 Hz, derivative vs. dantrolene
T1 construct: Human myocytes were obtained from specimens of human right atrial appendage obtained during surgery; endogenous in cells; host or cells: primary human atrial myocytes isolated from right atrial appendage
Protocol: Human myocytes were obtained from specimens of human right atrial appendage obtained during surgery from hearts of patients undergoing cardiopulmonary bypass. The isolation procedure produced rod-shaped, calcium tolerant cells which were used within 24 hours after isolation (Crumb et al., (1995) Am J Physiol 268:H1335-H1342).
The whole-cell patch clamp technique was carried out at 23±1° C. with precise micromanipulation under high power visual magnification to measure calcium currents. Glass pipettes were fire polished to produce tip diameters of 1-4 μm. The tip of the pipette, filled with electrolyte “internal” solution (a composition of (mM): 120 CsCl, 20 TEACl, 5 NaCl, 1 CaCl2, 10 EGTA, 10 HEPES, 5 MgATP, 0.2 Na2GTP, adjusted to pH 7.2 with CsOH) was positioned onto a cell. The cell was in a bathing “external” solution (consisting of (mM): 1.8 CaCl2, 137 NaCl, 20 CsCl, 4 KCl, 1 MgCl2, 10 HEPES, 10 dextrose, pH=7.4 with NaOH). Pipette tip resistance was approximately 1.0 to 2.0 MΩ when filled with the internal solution. Suction was then applied to the pipette interior to seal the cell membrane onto the tip. Another suction pulse then broke the membrane, establishing electrical access into the interior of the cell. The cellular interior then became dialysed by the solution the patch pipette was filled with.
After rupture of the cell membrane (entering whole-cell mode), current kinetics and amplitudes were allowed to stabilize (currents elicited by a series of voltage pulses given at 0.1 Hz were superimposed) as the cell was dialyzed with internal solution and paced at 1 Hz (3-5 minutes). Calcium current (ICa) was measured using a voltage pulse to 0 mV (200 ms duration) from a holding potential of −60 mV. Only a pacing rate of 0.1 Hz was used. Test article, at concentrations of 0.1, 1, 3, 10, 30, and […] was added in a cumulative manner to a cell.
Currents and voltages were recorded with patch-clamp amplifiers (Axopatch 1-B, Axon Instruments, Foster City, Calif.). Creation of voltage clamp pulses and data acquisition was controlled by a computer using electrophysiology software (pCLAMP version 9.2, Axon Instruments, Foster City, Calif.). […] Each cell served as its own control.
All stock solutions (10 mM) were made by adding DMSO directly into the bottle containing the test article.
Approximate IC50 values (Table 1) were obtained from non-linear regression analysis of dose-response curves (FIG. 1) using GraphPad's Prism 5.01 software. Data was also analyzed for mean percent inhibition±SEM at the highest concentration tested, 100 μM (FIG. 2).
To test for cell sensitivity, 0.1 μM nisoldipine was added after exposure to test article.

T1 sequence (Q13936 whole entry): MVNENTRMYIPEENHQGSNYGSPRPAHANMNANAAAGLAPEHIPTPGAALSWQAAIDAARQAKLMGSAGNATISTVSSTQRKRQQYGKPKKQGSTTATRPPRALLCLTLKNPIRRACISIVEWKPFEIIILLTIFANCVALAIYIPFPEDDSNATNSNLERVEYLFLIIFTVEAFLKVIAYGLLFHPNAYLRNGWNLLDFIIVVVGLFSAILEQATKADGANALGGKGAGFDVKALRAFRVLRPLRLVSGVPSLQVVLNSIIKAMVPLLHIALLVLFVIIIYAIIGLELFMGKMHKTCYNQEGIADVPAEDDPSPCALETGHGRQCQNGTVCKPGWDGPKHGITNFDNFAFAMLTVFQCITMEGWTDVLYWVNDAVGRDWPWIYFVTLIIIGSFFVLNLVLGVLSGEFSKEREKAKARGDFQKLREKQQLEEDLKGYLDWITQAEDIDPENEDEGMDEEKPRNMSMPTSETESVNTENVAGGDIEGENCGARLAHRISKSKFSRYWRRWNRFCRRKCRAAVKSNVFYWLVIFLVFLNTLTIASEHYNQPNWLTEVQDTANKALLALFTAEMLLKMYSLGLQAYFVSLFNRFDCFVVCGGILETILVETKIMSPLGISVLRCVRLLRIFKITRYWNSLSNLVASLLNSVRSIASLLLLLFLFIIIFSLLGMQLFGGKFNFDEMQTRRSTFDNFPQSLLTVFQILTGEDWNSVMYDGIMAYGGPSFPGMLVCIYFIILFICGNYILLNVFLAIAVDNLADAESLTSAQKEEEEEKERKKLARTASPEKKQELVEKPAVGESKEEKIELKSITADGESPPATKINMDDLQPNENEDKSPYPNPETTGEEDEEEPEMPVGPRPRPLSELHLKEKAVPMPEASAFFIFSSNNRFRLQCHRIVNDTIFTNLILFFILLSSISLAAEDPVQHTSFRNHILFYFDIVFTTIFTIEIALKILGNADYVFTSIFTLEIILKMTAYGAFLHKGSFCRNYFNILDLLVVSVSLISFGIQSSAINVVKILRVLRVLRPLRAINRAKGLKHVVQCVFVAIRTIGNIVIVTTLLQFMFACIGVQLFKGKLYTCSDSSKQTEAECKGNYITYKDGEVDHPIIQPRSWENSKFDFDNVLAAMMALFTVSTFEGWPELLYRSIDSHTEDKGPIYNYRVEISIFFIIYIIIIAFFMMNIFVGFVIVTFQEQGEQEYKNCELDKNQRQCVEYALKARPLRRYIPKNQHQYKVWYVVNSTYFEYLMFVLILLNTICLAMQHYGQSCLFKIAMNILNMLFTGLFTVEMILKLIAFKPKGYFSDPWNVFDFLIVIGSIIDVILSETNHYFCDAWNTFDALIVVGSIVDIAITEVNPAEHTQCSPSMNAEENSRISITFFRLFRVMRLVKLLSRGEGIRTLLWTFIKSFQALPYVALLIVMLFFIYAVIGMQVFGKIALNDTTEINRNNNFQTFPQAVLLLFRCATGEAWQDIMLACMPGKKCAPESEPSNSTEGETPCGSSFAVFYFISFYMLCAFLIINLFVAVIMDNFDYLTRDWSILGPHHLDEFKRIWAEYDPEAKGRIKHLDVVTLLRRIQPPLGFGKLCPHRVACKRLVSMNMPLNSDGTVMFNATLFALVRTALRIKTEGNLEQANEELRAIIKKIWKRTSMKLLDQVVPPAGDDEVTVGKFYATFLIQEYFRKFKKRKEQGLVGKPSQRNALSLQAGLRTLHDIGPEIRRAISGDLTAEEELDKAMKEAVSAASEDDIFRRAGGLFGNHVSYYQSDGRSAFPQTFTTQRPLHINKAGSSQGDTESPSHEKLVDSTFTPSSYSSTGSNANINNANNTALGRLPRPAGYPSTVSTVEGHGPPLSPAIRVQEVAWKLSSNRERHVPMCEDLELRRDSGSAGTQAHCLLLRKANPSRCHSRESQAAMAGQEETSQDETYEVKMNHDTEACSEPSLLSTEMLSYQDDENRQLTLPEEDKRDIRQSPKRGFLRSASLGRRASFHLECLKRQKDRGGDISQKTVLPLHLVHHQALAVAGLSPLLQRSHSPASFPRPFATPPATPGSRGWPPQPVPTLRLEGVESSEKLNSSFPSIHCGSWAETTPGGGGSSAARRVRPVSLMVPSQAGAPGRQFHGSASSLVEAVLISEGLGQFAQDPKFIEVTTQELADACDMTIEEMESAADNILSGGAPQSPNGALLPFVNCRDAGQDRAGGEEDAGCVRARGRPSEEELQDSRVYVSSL
T1 sequence (Q08289 whole entry partner): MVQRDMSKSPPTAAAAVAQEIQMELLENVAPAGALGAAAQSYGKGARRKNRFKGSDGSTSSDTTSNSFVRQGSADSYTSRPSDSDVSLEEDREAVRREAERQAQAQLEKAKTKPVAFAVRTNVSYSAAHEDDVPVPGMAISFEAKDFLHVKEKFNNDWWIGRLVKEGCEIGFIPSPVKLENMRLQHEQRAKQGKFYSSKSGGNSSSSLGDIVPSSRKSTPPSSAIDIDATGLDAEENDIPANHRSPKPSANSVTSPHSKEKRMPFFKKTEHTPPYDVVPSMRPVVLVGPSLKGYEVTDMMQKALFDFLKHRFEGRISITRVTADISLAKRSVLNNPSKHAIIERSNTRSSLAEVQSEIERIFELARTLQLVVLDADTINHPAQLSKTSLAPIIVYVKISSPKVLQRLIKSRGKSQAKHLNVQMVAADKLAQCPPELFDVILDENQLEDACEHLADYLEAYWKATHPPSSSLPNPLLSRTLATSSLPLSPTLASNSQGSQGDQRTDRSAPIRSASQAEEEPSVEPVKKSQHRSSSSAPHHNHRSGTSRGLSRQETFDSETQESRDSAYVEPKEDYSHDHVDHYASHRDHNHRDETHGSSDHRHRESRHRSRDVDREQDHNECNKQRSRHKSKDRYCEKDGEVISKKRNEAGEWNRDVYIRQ
T1 sequence (P54289 25-956 partner limits assumed): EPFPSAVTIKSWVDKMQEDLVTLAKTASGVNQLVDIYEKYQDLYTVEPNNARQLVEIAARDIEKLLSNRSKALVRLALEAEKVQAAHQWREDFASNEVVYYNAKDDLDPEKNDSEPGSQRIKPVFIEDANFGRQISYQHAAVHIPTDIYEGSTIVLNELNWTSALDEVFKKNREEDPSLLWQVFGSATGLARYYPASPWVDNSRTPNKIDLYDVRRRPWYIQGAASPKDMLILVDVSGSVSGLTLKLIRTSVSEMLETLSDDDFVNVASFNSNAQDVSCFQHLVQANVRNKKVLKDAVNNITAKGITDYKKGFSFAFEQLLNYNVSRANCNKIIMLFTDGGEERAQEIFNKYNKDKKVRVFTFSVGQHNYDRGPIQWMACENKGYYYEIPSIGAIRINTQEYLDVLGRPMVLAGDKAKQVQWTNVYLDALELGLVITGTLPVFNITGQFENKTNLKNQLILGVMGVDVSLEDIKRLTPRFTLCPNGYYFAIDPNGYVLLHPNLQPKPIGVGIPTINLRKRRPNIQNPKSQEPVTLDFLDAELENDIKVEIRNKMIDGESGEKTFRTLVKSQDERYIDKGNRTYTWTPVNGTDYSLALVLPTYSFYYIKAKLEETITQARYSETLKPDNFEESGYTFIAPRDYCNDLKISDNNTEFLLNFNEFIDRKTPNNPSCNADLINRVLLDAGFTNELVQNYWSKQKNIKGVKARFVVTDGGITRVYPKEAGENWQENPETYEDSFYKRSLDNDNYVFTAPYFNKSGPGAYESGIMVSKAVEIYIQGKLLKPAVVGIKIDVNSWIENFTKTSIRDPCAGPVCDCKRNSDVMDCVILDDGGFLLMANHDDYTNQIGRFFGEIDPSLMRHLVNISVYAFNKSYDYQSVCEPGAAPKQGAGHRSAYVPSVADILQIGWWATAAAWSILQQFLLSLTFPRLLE
T1 sequence (P54289 957-1103 partner limits assumed): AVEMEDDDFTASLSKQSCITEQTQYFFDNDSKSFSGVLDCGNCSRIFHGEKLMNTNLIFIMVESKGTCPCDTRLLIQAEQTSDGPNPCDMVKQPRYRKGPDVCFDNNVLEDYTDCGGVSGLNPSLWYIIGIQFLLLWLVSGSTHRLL

SMILES	block of Ica amplitude ([2]; at 100 μM, 0.1 Hz, isolated human atrial myocytes)	IC50 [2]	reduction Ica ([2]; 0.1 μM nisoldipine added after exposure to test article, 2 cells, cell sensitivity test)	pKa [1]	Fold Difference (Parent vs. Derivative) [2]	logP [1]
O=C1CN(/N=C/c2ccc(-c3ccc([N+](=O)[O-])cc3)o2)C(O)=N1 [Dantrolene sodium salt, reference compound]	–	–	–	7.11	–	–
O=C1CN(/N=C/c2ccc(-c3ccc([N+](=O)[O-])cc3)o2)C(O)=N1 [Dantrolene]	21.1%	0.104 mM	–	–	–	–
COCCOCCOCCN1C(=O)CN(N=Cc2ccc(-c3ccc([N+](=O)[O-])cc3)o2)C1=O [mPEG3-N-Dantrolene, mPEG3-N-dantrolene]	–	–	–	–	1067	–
COCCOCCOCCOc1cc([N+](=O)[O-])ccc1-c1ccc(C=NN2CC(=O)NC2=O)o1 [mPEG3-O-Dantrolene, mPEG3-O-dantrolene]	–	–	–	8.69	1144	-0.6
COCCOCCOCCOCCOCCOc1cc([N+](=O)[O-])ccc1-c1ccc(C=NN2CC(=O)NC2=O)o1 [mPEG5-O-Dantrolene, mPEG5-O-dantrolene]	–	54.3 mM	–	7.49	522	0.74
COCCOCCOCCOCCOCCOCCOCCOc1cc([N+](=O)[O-])ccc1-c1ccc(C=NN2CC(=O)NC2=O)o1 [mPEG7-O-Dantrolene, mPEG7-O-dantrolene]	–	46.2 mM	–	7.32	444	0.62

Second part, led by results:

block of Ica amplitude ([2]; at 100 μM, 0.1 Hz, isolated human atrial myocytes)	IC50 [2]	reduction Ica ([2]; 0.1 μM nisoldipine added after exposure to test article, 2 cells, cell sensitivity test)	SMILES	pKa [1]	Fold Difference (Parent vs. Derivative) [2]	logP [1]
–	27 mM	–	COCCOCCOCCOCCOCCN1C(=O)CN(N=Cc2ccc(-c3ccc([N+](=O)[O-])cc3)o2)C1=O [mPEG5-N-Dantrolene, mPEG5-N-dantrolene]	–	260	–
–	0.193 mM	–	COCCOCCOCCOCCOCCOCCOCCN1C(=O)CN(N=Cc2ccc(-c3ccc([N+](=O)[O-])cc3)o2)C1=O [mPEG7-N-Dantrolene, mPEG7-N-dantrolene]	–	2	–
–	–	100%	COC(=O)C1=C(C)NC(C)=C(C(=O)OCC(C)C)C1c1ccccc1[N+](=O)[O-] (centres unmarked) [nisoldipine, reference compound]	–	–	–
